Measurements: patent publication US8809280B2, “Therapeutic peptides” (Lytix Biopharma AS, priority 2009, dated 2014)
In brackets after ≈: the same amount, converted by molar mass. Like-named read-outs stand apart in the source and are kept apart here.

What was measured:
[1] = Phospholipid vesicle based barrier model permeability; type: in vitro ADME
Text: Encouraged by the theoretical calculations, the permeability of the β^2,2-amino acid derivatives was further investigated using a recently established phospholipid vesicle based barrier model (Flaten et al. Eur. J. Pharm. Sci. [2006] 27, 80-90).

[2] = tested on: methicillin resistant Staphylococcus epidermidis (ATCC 27626); assay: microbe, parasite or virus in culture; type: cell-based
Summary of the method: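 Exponentially grown bacteria (2% peptone water) at 2×10^6 cfu/ml exposed in duplicate to di-TFA salts at 0.5–200 μg/ml. Growth or no growth judged by well turbidity; no-peptide and gentamicin controls included.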

[3] = tested on: Staphylococcus aureus (ATTC 25923); assay: microbe, parasite or virus in culture; type: cell-based
Summary of the method: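 Di-TFA salts tested in duplicate at 0.5–200 μg/ml against exponential-phase bacteria at 2×10^6 cfu/ml grown in 2% peptone water. Growth judged by well turbidity, with no-peptide and gentamicin controls.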

[4] = molecular target: α-chymotrypsin (Bos taurus, UniProt P00766, DEL14-15/DEL147-148); assay: Stability against α-chymotrypsin; type: in vitro ADME; conditions: over a period of 48 hours
Procedure: The stability testing against α-chymotrypsin was conducted by dissolving the desired compounds to 1 mg/ml in water. α-Chymotrypsin was dissolved to 0.1 mg/ml in 1 mM HCl containing 2 mM CaCl2. The enzymatic digestion was performed in 100 mM TRIS HCl containing 10 mM CaCl2. Final enzyme concentration was 2 μg/ml, and final peptide concentration was 100 μg/ml. Total volume was 0.5 ml.
15 μl samples were collected at 0, 15, 30, 60, 120 and 240 min in addition to the 24 and 48 hours samples. To the samples it was added an external standard (atenolol hydrochloride) and 100 μl 10% acetic acid to terminate digestion before it was diluted to 1 ml with water.
For every test there were done a negative control without enzyme to ensure that degradation was due to enzyme activity and not other factors. Succinyl-ala-ala-pro-phe-para nitroanhiine was used as positive control. All test were run in triplicates.

[5] = tested on: human red blood cells; assay: cells; type: cell-based
Summary of the method: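 Washed heparinized RBCs, diluted to 10% hematocrit then to 1% v/v final, incubated with compounds in PBS (1–1000 μg/mL) for 1 h at 37 °C with agitation. Hemoglobin release read at 405 nm against PBS (0%) and 0.1% Triton X-100 (100%); value reported is concentration giving 50% hemolysis.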

[6] = tested on: methicillin resistant Staphylococcus aureus (ATCC 33591); assay: microbe, parasite or virus in culture; type: cell-based
Summary of the method: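 Di-TFA salts tested in duplicate at 200 down to 0.5 μg/ml against exponentially grown bacteria at 2×10^6 cfu/ml. Growth judged by well turbidity, with no-peptide and gentamicin controls.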

[7] = tested on: Escherichia coli (ATTC 25922); assay: microbe, parasite or virus in culture; type: cell-based
Summary of the method: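 Broth dilution in 2% Bacto Peptone water, inoculum 2×10^6 cfu/ml of exponential-phase bacteria; compounds (di-TFA salts) tested in duplicate at 200 down to 0.5 μg/ml. Growth judged by well turbidity, with no-peptide negative and gentamicin positive controls.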

[8] = tested on: MRC-5; assay: Toxicity assay MRC-5; type: cell-based; conditions: highest concentration tested 500 μg/ml
Procedure: Cells for Toxicity Studies Used MRC-5 and human RBC MRC-5 assay: 500 μg/ml

[9] = tested on: UT-SCC-34A; assay: Compound 7 panel screening; type: cell-based; conditions: Homo sapiens, supraglottic larynx squamous oral carcinoma
Procedure: (§1) Compound 7 described in Example 2 was screened against two normal cell lines and nine cancer cell lines.
(§2) All cell lines were of human origin. Stock solution of compound 7 was dissolved in assay media containing 10% DMSO. Three parallel experiments were performed against each cell line.

[10] = tested on: Kelly; assay: Compound 7 panel screening; type: cell-based; conditions: Homo sapiens, neuroblastoma
Procedure: as §1, §2

[11] = tested on: MDA-MB435; assay: Compound 7 panel screening; type: cell-based; conditions: Homo sapiens, MDA-MB-435, breast carcinoma
Procedure: as §1, §2

[12] = tested on: HUV-EC-C; assay: Compound 7 panel screening; type: cell-based; conditions: Homo sapiens, umbilical vein, normal, endothelial
Procedure: as §1, §2

[13] = tested on: HT-29; assay: Compound 7 panel screening; type: cell-based; conditions: Homo sapiens, colon colorectal adenocarcinoma
Procedure: as §1, §2

[14] = tested on: Ramos; assay: Compound 7 panel screening; type: cell-based; conditions: Homo sapiens, Burkitt's lymphoma
Procedure: as §1, §2

[15] = tested on: FEMX; assay: Compound 7 panel screening; type: cell-based; conditions: Homo sapiens, Fem-X, skin melanoma
Procedure: as §1, §2

[16] = tested on: UT-SCC-24A; assay: Compound 7 panel screening; type: cell-based; conditions: Homo sapiens, tongue squamous oral carcinoma
Procedure: as §1, §2

[17] = tested on: MRC-5; assay: Compound 7 panel screening; type: cell-based; conditions: Homo sapiens, MRC5, lung, normal, fibroblast
Procedure: as §1, §2

[18] = tested on: DU-145; assay: Compound 7 panel screening; type: cell-based; conditions: Homo sapiens, prostate carcinoma
Procedure: as §1, §2

[19] = tested on: OVCAR-3; assay: Compound 7 panel screening; type: cell-based; conditions: Homo sapiens, ovary adenocarcinoma
Procedure: as §1, §2

[20] = tested on: A20; assay: cells; type: cell-based
Procedure: Cancer Cell Lines A20 or MethA Anticancer assays: 500 μg/ml

[21] = tested on: Pseudomonas aeruginosa (ATCC 27853); assay: microbe, parasite or virus in culture; type: cell-based; conditions: for MIC: Pseudomonas aeruginosa, ATCC27853, Example 4, ATCC 27853, di-trifluoroacetate salts, highest concentration tested 200 μg/ml, read-out: MIC P. aeruginosa; for Therapeutic index P. aeruginosa: EC50 RBC divided by MIC
Procedure: Each compound was tested in duplicates at 200, 100, 50, 35, 15, 10, 5, 2.5, 1, 0.5 μg/ml. All tested compounds were di-trifluoroacetic acid salts.

[22] = Example 2, values separated by / are repeat tests
[23] = phospholipid vesicle based barrier model
[24] = Staphylococcus epidermidis, ATCC 27626 / MRSE, Example 4, ATCC 27626, di-trifluoroacetate salts, highest concentration tested 200 μg/ml, read-out: MIC MRSE
[25] = Staphylococcus aureus, ATCC25923, Example 4, ATCC 25923, di-trifluoroacetate salts, highest concentration tested 200 μg/ml, read-out: MIC S. aureus
[26] = Erythrocyte, Example 4, hemolytic activity, human red blood cells, highest concentration tested 1000 μg/ml, read-out: EC50 RBC
[27] = Staphylococcus aureus, ATCC33591, Example 4, ATCC 33591, di-trifluoroacetate salts, highest concentration tested 200 μg/ml, read-out: MIC MTRSA
[28] = Escherichia coli, ATCC25922, Example 4, ATCC 25922, di-trifluoroacetate salts, highest concentration tested 200 μg/ml, read-out: MIC E. coli

Compound: CN(C)CCN1CCN(C(=O)C(CN)(Cc2ccc3ccccc3c2)Cc2ccc3ccccc3c2)CC1 [Compound 4c]
- permeability, model's classification of absorption ([1]; not told): moderately absorbed in humans
- MBC MRSE ([2]; ATCC 27626): 7.2 µM (≈ 3.66 µg/mL)
- Therapeutic index MRSE ([2]; ATCC 27626): 29
- MBC S. aureus ([3]; ATTC 25923): 7.2 µM (≈ 3.66 µg/mL)
- Therapeutic index S. aureus ([3]; ATTC 25923): 20
- proteolytic stability against α-chymotrypsin [4]: no degradation could be detected
- EC50 RBC ([5]; Example 1, 50% hemolysis of human red blood cells, highest concentration tested 1000 μg/ml): — (The notation “—”denotes no detectable activity (MIC or EC50) within the concentration range tested.)
- EC50 ([5]; red cells of human): 409 µM
- MBC MRSA ([6]; ATCC 33591): 7.2 µM (≈ 3.66 µg/mL)
- MIC MRSA ([6]; ATCC 33591): 7.2 µM (≈ 3.66 µg/mL)
- Therapeutic index MRSA ([6]; ATCC 33591): 120
- MIC ([6]; ATCC 33591, read-out: MIC MTRSA): 3.4 µM
- MBC E. coli ([7]; ATTC 25922): 289 µM (≈ 147 µg/mL)
- Therapeutic index E. coli ([7]; ATTC 25922): 8.5

Compound: N=C(N)NCCC[C@H](NC(=O)C(CN)(Cc1ccc2ccccc2c1)Cc1ccc2ccccc2c1)C(N)=O [Compound 4g]
- MBC MRSE ([2]; ATCC 27626): 6.6 µM (≈ 3.46 µg/mL)
- MIC ([2]; ATCC 27626, read-out: MIC MRSE): 6.6 µM
- MBC S. aureus ([3]; ATTC 25923): 6.6 µM (≈ 3.46 µg/mL)
- MIC ([3]; ATTC 25923, read-out: MIC S. aureus): 6.6 µM
- proteolytic stability against α-chymotrypsin [4]: no degradation could be detected
- EC50 ([5]; red cells of human): 470 µM
- MBC MRSA ([6]; ATCC 33591): 5.3 µM (≈ 2.78 µg/mL)
- MIC MRSA ([6]; ATCC 33591): 5.0 µM (≈ 2.62 µg/mL)
- MBC E. coli ([7]; ATTC 25922): 266 µM (≈ 140 µg/mL)
- MIC ([7]; ATTC 25922, read-out: MIC E. coli): 266 µM

Compound: NCCNC(=O)C(CN)(Cc1ccc2ccccc2c1)Cc1ccc2ccccc2c1 [Compound 7, 3-amino-N-(2-aminoethyl)-2,2-bis(naphthalen-2-ylmethyl)propanamide]
- Toxicity MRC-5 ([8]; Example 2): 14 µg/mL
- IC50 ([8]; Homo sapiens, MRC5, Example 2): 13.5 µg/mL (≈ 32.8 µM)
- IC50 [9]: 16.2 µg/mL (≈ 39.3 µM)
- IC50 [10]: 3.9 µg/mL (≈ 9.48 µM)
- IC50 [11]: 6.54 µg/mL (≈ 15.9 µM)
- IC50 [12]: 3.81 µg/mL (≈ 9.26 µM)
- IC50 [13]: 15.4 µg/mL (≈ 37.5 µM)
- IC50 [14]: 2.61 µg/mL (≈ 6.34 µM)
- IC50 [15]: 17.1 µg/mL (≈ 41.6 µM)
- IC50 [16]: 14.2 µg/mL (≈ 34.5 µM)
- IC50 [17]: 8.21 µg/mL (≈ 19.9 µM)
- IC50 [18]: 15.2 µg/mL (≈ 37 µM)
- IC50 [19]: 18.1 µg/mL (≈ 43.9 µM)
- Antimicrobial potency (MIC) MRSE [2, 22]: 5 µg/mL
- MIC ([2]; Staphylococcus epidermidis, ATCC 27626 / MRSE, Example 2, values separated by / are repeat tests, read-out: Antimicrobial potency (MIC) MRSE): 2.5 µg/mL
- Antimicrobial potency (MIC) S. aureus [3, 22]: 5 µg/mL
- MIC ([3]; Staphylococcus aureus, Example 2, values separated by / are repeat tests, read-out: Antimicrobial potency (MIC) S. aureus): 2.5 µg/mL
- Anticancer potency (IC50) A20 ([20]; Example 2, highest concentration tested 500 μg/ml, * low solubility in the test media (Table 2)): 0.7 µg/mL
- Anti-Cancer Selectivity MRC-5/A20 ([20]; ratio of MRC-5 to A20 values): 19.3-20
- Anti-Cancer Selectivity RBC/A20 ([20]; ratio of RBC EC50 to A20 IC50): 417
- EC50 ([5]; Homo sapiens, Erythrocyte, Example 2, highest concentration tested 1000 μg/ml, * low solubility in the test media, read-out: Toxicity RBC (EC50)): 292 µg/mL
- MIC ([6]; Staphylococcus aureus, ATCC 33591 / MRSA, Example 2, values separated by / are repeat tests, read-out: Antimicrobial potency (MIC) MRSA): 5 µg/mL
- MIC ([7]; Escherichia coli, Example 2, values separated by / are repeat tests, read-out: Antimicrobial potency (MIC) E. coli): 15 µg/mL

Compound: CN1CCN(C(=O)C(CN)(Cc2ccc3ccccc3c2)Cc2ccc3ccccc3c2)CC1 [Entry 5c]
- experimental permeability values, rank ([1]; among 4c, 5c, 6c and 7c): highest permeability
- permeability, model's classification of absorption [1, 23]: moderately absorbed in humans
- Therapeutic index MRSE ([2]; EC50 RBC divided by MIC): 20
- MIC [2, 24]: 15 µM
- MIC [21]: > 200 µg/mL
- Therapeutic index S. aureus ([3]; EC50 RBC divided by MIC): 20
- MIC [3, 25]: 15 µM
- EC50 [5, 26]: 303 µM
- Therapeutic index MRSA ([6]; EC50 RBC divided by MIC): 41
- MIC [6, 27]: 7.4 µM
- Therapeutic index E. coli ([7]; EC50 RBC divided by MIC): 14
- MIC [7, 28]: 22 µM

Compound: CN(C)CCNC(=O)C(CN)(Cc1ccc2ccccc2c1)Cc1ccc2ccccc2c1 [Entry 6c]
- permeability, model's classification of absorption [1, 23]: moderately absorbed in humans
- Therapeutic index MRSE ([2]; EC50 RBC divided by MIC): 16
- MIC [2, 24]: 7.5 µM
- Therapeutic index P. aeruginosa [21]: 0.4
- MIC [21]: 300 µM
- Therapeutic index S. aureus ([3]; EC50 RBC divided by MIC): 16
- MIC [3, 25]: 7.5 µM
- EC50 [5, 26]: 117 µM
- Therapeutic index MRSA ([6]; EC50 RBC divided by MIC): 16
- MIC [6, 27]: 7.5 µM
- Therapeutic index E. coli ([7]; EC50 RBC divided by MIC): 5.1
- MIC [7, 28]: 23 µM

Compound: NCCNC(=O)C(CN)(Cc1ccc2ccccc2c1)Cc1ccc2ccccc2c1 [Entry 7c]
- permeability, model's classification of absorption [1, 23]: moderately absorbed in humans
- Therapeutic index MRSE ([2]; EC50 RBC divided by MIC): 117
- MIC [2, 24]: 3.9 µM
- Therapeutic index P. aeruginosa [21]: 8.3
- MIC [21]: 55 µM
- Therapeutic index S. aureus ([3]; EC50 RBC divided by MIC): 117
- MIC [3, 25]: 3.9 µM
- EC50 [5, 26]: 457 µM
- Therapeutic index MRSA ([6]; EC50 RBC divided by MIC): 59
- MIC [6, 27]: 7.8 µM
- Therapeutic index E. coli ([7]; EC50 RBC divided by MIC): 19
- MIC [7, 28]: 24 µM
